Source: US9181241B2, “Antagonists of chemokine receptors” (ChemoCentryx, Inc., priority 2012, dated 2015)

Molecular target: T1, CCR1 (Homo sapiens, UniProt P32246)
T1 construct: host or cells: THP-1 cells or isolated human CD14+ monocytes
T1 sequence (P32246 1-355): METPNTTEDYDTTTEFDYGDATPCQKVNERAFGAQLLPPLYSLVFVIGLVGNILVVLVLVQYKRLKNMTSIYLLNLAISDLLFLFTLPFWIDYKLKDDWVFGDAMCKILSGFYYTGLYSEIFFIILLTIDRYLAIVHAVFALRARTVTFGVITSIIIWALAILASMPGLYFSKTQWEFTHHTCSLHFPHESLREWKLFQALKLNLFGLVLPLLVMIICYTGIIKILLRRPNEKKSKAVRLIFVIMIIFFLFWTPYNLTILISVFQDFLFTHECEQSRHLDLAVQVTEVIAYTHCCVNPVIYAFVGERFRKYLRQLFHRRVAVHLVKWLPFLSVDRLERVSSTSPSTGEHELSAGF
Assay: Chemotaxis assay (CTX): inhibition of CCR1 mediated migration of THP-1 or monocyte cells
Assay type: cell-based
Conditions: class symbols; activity for either the chemotaxis assay or binding assay
Procedure: THP-1 cells were obtained from ATCC (TIB-202) and cultured as a suspension in RPMI-1640 medium supplemented with 2 mM L-glutamine, 1.5 g/L sodium bicarbonate, 4.5 g/L glucose, 10 mM HEPES, 1 mM sodium pyruvate, 0.05% 2-mercaptoethanol and 10% FBS. Cells were grown under 5% CO2/95% air, 100% humidity at 37° C. and subcultured twice weekly at 1:5 (cells were cultured at a density range of 2×10^5 to 2×10^6 cells/mL) and harvested at 1×10^6 cells/mL. THP-1 cells express CCR1 and can be used in CCR1 binding and functional assays.
Monocytes were isolated from human buffy coats using the Miltenyi bead isolation system (Miltenyi, Auburn, Calif.). Briefly, following a Ficoll gradient separation to isolate peripheral blood mononuclear cells, cells were washed with PBS and the red blood cells lysed using standard procedures. Remaining cells were labeled with anti-CD14 antibodies coupled to magnetic beads (Miltenyi Biotech, Auburn, Calif.). Labeled cells were passed through AutoMACS (Miltenyi, Auburn, Calif.) and positive fraction collected. Monocytes express CCR1 and can be used in CCR1 binding and functional assays.
Chemotaxis assays were performed using 5 μm pore polycarbonate, polyvinylpyrrolidone-coated filters in 96-well chemotaxis chambers (Neuroprobe; Gaithersburg, Md.) using chemotaxis buffer (Hank's balanced salt solution (HBSS) and 1% FBS). CCR1 chemokine ligands (i.e., MIP-1α, CCL15/Leukotactin; R&D Systems; Minneapolis, Minn.) are use to evaluate compound mediated inhibition of CCR1 mediated migration. Other chemokines (i.e., SDF-1α; R&D Systems; Minneapolis, Minn.) are used as specificity controls. The lower chamber was loaded with 29 μl of chemokine (i.e., 0.1 nM CCL15/Leukotactin) and varying amounts of compound; the top chamber contained 100,000 THP-1 or monocyte cells in 20 μl. The chambers were incubated 1-2 hours at 37° C., and the number of cells in the lower chamber quantified either by direct cell counts in five high powered fields per well or by the CyQuant assay (Molecular Probes), a fluorescent dye method that measures nucleic acid content, and by measuring with a Spectrafluor Plus (Tecan). The computer program Prism from GraphPad, Inc. (San Diego, Calif.) was used to calculate IC50 values. IC50 values are those compound concentrations required to inhibit the number of cells responding to a CCR1 agonist by 50%.

SMILES	IC50
Cc1nn(-c2ccc(F)cc2)c2c1N(C(=O)Cn1nc(C(F)(F)F)c(Cl)c1C)CCC2	< 1000 nM
Cc1nc(C(F)(F)F)cn1[C@@H](C)C(=O)N1CCCc2c1cnn2-c1ccc(F)cc1	< 1000 nM
O=C(Cc1ccc(C(F)(F)F)c(Cl)c1)N1CCCc2c1cnn2-c1ccc(F)cc1	< 1000 nM
Cc1nc(C(F)(F)F)cn1[C@@H](C)C(=O)N1CCCc2c1cnn2-c1ccc(Cl)cc1	< 1000 nM
Nc1ncnc2c1c(-c1ncc[nH]1)nn2CC(=O)N1CCCc2c1cnn2-c1ccc(F)cc1	< 1000 nM
CC(C(=O)N1CCCc2c1cnn2-c1ccc(F)cc1)c1ccc(Cl)c(C(F)(F)F)c1 (stereo not drawn)	< 1000 nM
O=C(Cn1nc(C(F)(F)F)c2c1CCC2)N1CCCc2c1cnn2-c1ccc(F)cc1	< 1000 nM
Cc1nc(C(F)(F)F)cn1CC(=O)N1CCCc2c1cnn2-c1ccc(F)cc1	< 1000 nM
O=C(Cn1nc(-c2ncc[nH]2)c2cccnc21)N1CCCc2c1cnn2-c1ccc(F)cc1	< 1000 nM
Cc1c(Cl)cccc1CC(=O)N1CCCc2c1cnn2-c1ccc(F)cc1	> 12500 nM
O=C(Cc1ccc(Cl)c(OC(F)(F)F)c1)N1CCCc2c1cnn2-c1ccc(F)cc1	< 1000 nM
CC(C)(C(=O)N1CCCc2c1cnn2-c1ccc(F)cc1)c1ccc(Cl)c(C(F)(F)F)c1	< 1000 nM
O=C(Cc1ccc(Cl)c(C(F)(F)F)c1)N1CCCc2c1cnn2-c1ccc(F)cc1	< 1000 nM
O=C(Cn1cc(Cl)cn1)N1CCCc2c1cnn2-c1ccc(F)cc1	< 1000 nM
Cc1cc(C(F)(F)F)nn1C(C)C(=O)N1CCCc2c1cnn2-c1ccc(F)cc1 (stereo not drawn)	< 1000 nM
COC(=O)C1CCc2c(cnn2-c2ccc(F)cc2)N1C(=O)Cn1nc(C(F)(F)F)c(Cl)c1C (stereo not drawn)	< 1000 nM
O=C(Cn1cc(Cl)c(C(F)(F)F)n1)N1CCCc2c1cnn2-c1ccc(F)cc1	< 1000 nM
COCC(C(=O)N1CCCc2c1cnn2-c1ccc(F)cc1)n1nc(C(F)(F)F)c(Cl)c1C (stereo not drawn)	< 1000 nM
Cc1cc(C(F)(F)F)nn1C(CC(N)=O)C(=O)N1CCCc2c1cnn2-c1ccc(F)cc1 (stereo not drawn)	< 1000 nM
O=C(Cn1nc(C(F)(F)F)c2c1CCCC2)N1CCCc2c1cnn2-c1ccc(F)cc1	< 1000 nM
CCC(C(=O)N1CCCc2c1cnn2-c1ccc(F)cc1)n1nc(-c2ncccn2)c(Cl)c1C (stereo not drawn)	< 1000 nM
CC[C@H](C(=O)N1CCCc2c1cnn2-c1ccc(F)cc1)n1nc(C(F)(F)F)c(Cl)c1C	< 1000 nM
CCC(C(=O)N1CCCc2c1cnn2-c1ccc(F)cc1)n1nc(C(F)(F)F)c(Cl)c1C (stereo not drawn)	< 1000 nM
O=C(Cn1nc(C(F)(F)F)c2c1CCOC2)N1CCCc2c1cnn2-c1ccc(F)cc1	< 1000 nM
Cc1c(Cl)c(C(F)F)nn1CC(=O)N1CCCc2c1cnn2-c1ccc(F)cc1	< 1000 nM
Cc1c(Cl)c(C(C)(C)O)nn1CC(=O)N1CCCc2c1cnn2-c1ccc(F)cc1	< 1000 nM

SMILES	IC50
Cc1nc(C(F)(F)F)nn1C(C)C(=O)N1CCCc2c1cnn2-c1ccc(F)cc1 (stereo not drawn)	< 1000 nM
Cc1c(Cl)c(C(F)(F)F)nn1CC(=O)N1CCCc2c1cnn2-c1ccc(F)cc1	< 1000 nM
Cc1c(Cl)c(C(F)(F)F)nn1C(C)C(=O)N1CCCc2c1cnn2-c1ccc(F)cc1 (stereo not drawn)	< 1000 nM
Cc1c(Cl)c(C(F)(F)F)nn1C(CO)C(=O)N1CCCc2c1cnn2-c1ccc(F)cc1 (stereo not drawn) [drawing 103]	< 1000 nM
Cc1c(Cl)c(C(F)(F)F)nn1CC(=O)N1CCCc2c1cnn2-c1ccc(Cl)cc1	< 1000 nM
O=C(Cn1ncc2cccnc21)N1CCCc2c1cnn2-c1ccc(F)cc1	< 1000 nM
O=C(Cc1cccc(C(F)(F)F)c1)N1CCCc2c1cnn2-c1ccc(F)cc1	< 1000 nM
O=C(Cn1cc(C(F)(F)F)cn1)N1CCCc2c1cnn2-c1ccc(F)cc1	< 1000 nM
Cc1c(Cl)cnn1CC(=O)N1CCCc2c1cnn2-c1ccc(F)cc1	< 1000 nM
CC(C)(O)c1cnn(CC(=O)N2CCCc3c2cnn3-c2ccc(F)cc2)c1	2500 to 12500 nM
O=C(Cn1nc(C(F)(F)F)c2cccnc21)N1CCCc2c1cnn2-c1ccc(F)cc1	< 1000 nM
O=C(Cc1nc2ccccc2o1)N1CCCc2c1cnn2-c1ccc(F)cc1	< 1000 nM
O=C(Cc1ccc(Cl)cc1)N1CCCc2c1cnn2-c1ccc(F)cc1	< 1000 nM
Cc1c(Cl)c(C(F)(F)F)nn1CC(=O)N1CCCc2c1cnn2-c1ccc(F)cc1F	< 1000 nM
Cc1nc(C(F)(F)F)nn1CC(=O)N1CCCc2c1cnn2-c1ccc(F)cc1	< 1000 nM
O=C(Cc1nc2ccccc2[nH]1)N1CCCc2c1cnn2-c1ccc(F)cc1	< 1000 nM
Cc1cc(C(F)(F)F)nn1C(CO)C(=O)N1CCCc2c1cnn2-c1ccc(F)cc1 (stereo not drawn)	< 1000 nM
Cc1c(Cl)c(-c2ncccn2)nn1CC(=O)N1CCCc2c1cnn2-c1ccc(F)cc1	< 1000 nM
CCC(C(=O)N1c2cnn(-c3ccc(F)cc3)c2CCC1C)n1nc(C(F)(F)F)cc1C (stereo not drawn)	< 1000 nM
O=C(Cn1cnc(C(F)(F)F)c1)N1CCCc2c1cnn2-c1ccc(F)cc1	< 1000 nM
O=C(Cn1ncc2c1CCCC2)N1CCCc2c1cnn2-c1ccc(F)cc1	< 1000 nM
CCC(C(=O)N1CCCc2c1cnn2-c1ccc(F)cc1)n1cc(C(F)(F)F)nc1C (stereo not drawn)	< 1000 nM
Cc1c(Cl)c(C#N)nn1CC(=O)N1CCCc2c1cnn2-c1ccc(F)cc1	< 1000 nM
Cc1cc(C(F)(F)F)nn1C(CC(=O)O)C(=O)N1CCCc2c1cnn2-c1ccc(F)cc1 (stereo not drawn)	2500 to 12500 nM
Cc1c(Cl)c(C2=NCCN2)nn1CC(=O)N1CCCc2c1cnn2-c1ccc(F)cc1	< 1000 nM
O=C(C(O)c1cccc(C(F)(F)F)c1)N1CCCc2c1cnn2-c1ccc(F)cc1 (stereo not drawn)	1000 to 2500 nM

SMILES	IC50
N#Cc1cnn(CC(=O)N2CCCc3c2cnn3-c2ccc(F)cc2)c1	2500 to 12500 nM
O=C(Cn1cccn1)N1CCCc2c1cnn2-c1ccc(F)cc1	> 12500 nM
Cc1c(Cl)c(-c2ncc[nH]2)nn1CC(=O)N1CCCc2c1cnn2-c1ccc(F)cc1	< 1000 nM
Cc1nn(CC(=O)N2CCCc3c2cnn3-c2ccc(F)cc2)c(-c2ncccn2)c1Cl	< 1000 nM
O=C(Cc1ccc(C(F)(F)F)cc1)N1CCCc2c1cnn2-c1ccc(F)cc1	< 1000 nM
Cc1c(Cl)c(C(F)(F)F)cn1CC(=O)N1c2cnn(-c3ccc(F)cc3)c2CCC1C (stereo not drawn)	< 1000 nM
Cc1cc(C(F)(F)F)nn1C(CC1CCOCC1)C(=O)N1CCCc2c1cnn2-c1ccc(F)cc1 (stereo not drawn)	< 1000 nM
COc1cc(-n2ncc3c2CCCN3C(=O)Cn2nc(C(F)(F)F)c(Cl)c2C)ccc1Cl	< 1000 nM
CCC(C(=O)N1CCCc2c1cnn2-c1ccc(F)cc1)n1nc(C(C)(C)O)cc1C (stereo not drawn)	< 1000 nM
Cc1c(-c2ncon2)cnn1CC(=O)N1CCCc2c1cnn2-c1ccc(F)cc1	< 1000 nM
Cc1c(Cl)c(C(F)(F)F)nn1CC(=O)N1CCCc2c1cnn2-c1ccc(F)cn1	< 1000 nM
Cc1ccnn1CC(=O)N1CCCc2c1cnn2-c1ccc(F)cc1	< 1000 nM
O=C(Cc1cccc(OC(F)(F)F)c1)N1CCCc2c1cnn2-c1ccc(F)cc1	1000 to 2500 nM
CC[C@@H](C(=O)N1CCCc2c1cnn2-c1ccc(F)cc1)n1nc(C(F)(F)F)c(Cl)c1C	< 1000 nM
Cc1nc(C(F)(F)F)cn1C(C)C(=O)N1CCCc2c1cnn2-c1ccc(F)cc1 (stereo not drawn)	< 1000 nM
Cc1nc(C(F)(F)F)nn1C(C)C(=O)N1CCCc2c1cnn2-c1ccc(Cl)cc1 (stereo not drawn)	< 1000 nM
Cc1c(Cl)c(C(F)(F)F)nn1C(C(=O)N1CCCc2c1cnn2-c1ccc(F)cc1)C(C)C (stereo not drawn)	< 1000 nM
Cc1c(Cl)c(S(C)(=O)=O)nn1CC(=O)N1CCCc2c1cnn2-c1ccc(F)cc1	< 1000 nM
O=C(Cn1nc(C(F)(F)F)c2c1OCCC2)N1CCCc2c1cnn2-c1ccc(F)cc1	< 1000 nM
O=C(Cn1cnc(C(F)(F)F)n1)N1CCCc2c1cnn2-c1ccc(F)cc1	< 1000 nM
O=C(Cn1cnc2ncccc21)N1CCCc2c1cnn2-c1ccc(F)cc1	2500 to 12500 nM
O=C(Cc1ccc(OC(F)(F)F)cc1)N1CCCc2c1cnn2-c1ccc(F)cc1	< 1000 nM
O=C(Cc1nccc(C(F)(F)F)n1)N1CCCc2c1cnn2-c1ccc(F)cc1	2500 to 12500 nM
Cc1cc(C(F)(F)F)nn1CC(=O)N1CCCc2c1cnn2-c1ccc(F)cc1	< 1000 nM
O=C(Cc1ccc(C(F)(F)F)cc1Cl)N1CCCc2c1cnn2-c1ccc(F)cc1	< 1000 nM
COCC1CCc2c(cnn2-c2ccc(F)cc2)N1C(=O)Cn1nc(C(F)(F)F)c(Cl)c1C (stereo not drawn)	< 1000 nM
